Experimental data published in PubChem BioAssay AID200 (DTP/NCI, 2004).
Where “and” joins values, the source holds several entries; their conditions need not be identical. Equal entries are not always repeated. Inconclusive results and toxic doses are left out. Where a SMILES comes first, the peptide text is derived from it. The star is where a group is joined. Cbz = O=C(OCc1ccccc1)*; Bn = c1ccc(C*)cc1

Tested on: B6C3F1 mice, B16 melanoma ip, median survival T/C
Assay: NCI In Vivo Anticancer Drug Screen. Data for tumor model B16 Melanoma (intraperitoneal) in B6C3F1 mice
Conditions: endpoint: median survival time, higher = longer survival
Method in brief: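 Readout: survival or tumor size in treated mice relative to vehicle controls (T/C). Model uses transplantable tumors grown in mice.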

[1] = dose: 12.5 mg/kg/injection, schedule: Q01DX009 (ip), vehicle: saline
[2] = dose: 25.0 mg/kg/injection, schedule: Q01DX009 (ip), vehicle: saline
[3] = dose: 50.0 mg/kg/injection, schedule: Q01DX009 (ip), vehicle: saline
[4] = dose: 100.0 mg/kg/injection, schedule: Q01DX009 (ip), vehicle: saline
[5] = dose: 200.0 mg/kg/injection, schedule: Q01DX009 (ip), vehicle: saline
[6] = dose: 100.0 mg/kg/injection, schedule: Q01DX009 (ip), vehicle: Klucel (hydroxypropylcellulose) (HPC)
[7] = dose: 200.0 mg/kg/injection, schedule: Q01DX009 (ip), vehicle: Klucel (hydroxypropylcellulose) (HPC)
[8] = dose: 400.0 mg/kg/injection, schedule: Q01DX009 (ip), vehicle: Klucel (hydroxypropylcellulose) (HPC)
[9] = dose: 3.12 mg/kg/injection, schedule: Q01DX009 (ip), vehicle: saline with Tween-80
[10] = dose: 6.25 mg/kg/injection, schedule: Q01DX009 (ip), vehicle: saline with Tween-80
[11] = dose: 12.5 mg/kg/injection, schedule: Q01DX009 (ip), vehicle: saline with Tween-80
[12] = dose: 25.0 mg/kg/injection, schedule: Q01DX009 (ip), vehicle: saline with Tween-80
[13] = dose: 50.0 mg/kg/injection, schedule: Q01DX009 (ip), vehicle: Klucel (hydroxypropylcellulose) (HPC)
[14] = dose: 50.0 mg/kg/injection, schedule: Q01DX009 (ip), vehicle: saline with Tween-80
[15] = dose: 12.5 mg/kg/injection, schedule: Q01DX009 (ip), vehicle: distilled water + alcohol
[16] = dose: 25.0 mg/kg/injection, schedule: Q01DX009 (ip), vehicle: distilled water + alcohol
[17] = dose: 100.0 mg/kg/injection, schedule: Q01DX009 (ip), vehicle: saline with Tween-80

C=C(C)C(=O)OC1C/C(CO)=C\C(O)C/C(C)=C/C2OC(=O)C(=C)C21 (stereo unspecified)
T/C (dose: 1.25 mg/kg/injection, schedule: Q01DX009 (ip), vehicle: saline + alcohol): 101 % of control
T/C (dose: 2.5 mg/kg/injection, schedule: Q01DX009 (ip), vehicle: saline + alcohol): 100 % of control
T/C (dose: 5.0 mg/kg/injection, schedule: Q01DX009 (ip), vehicle: saline + alcohol): 114 % of control
T/C (dose: 10.0 mg/kg/injection, schedule: Q01DX009 (ip), vehicle: saline + alcohol): 112 % of control

CN(CCN(C)C(=O)CCOS(C)(=O)=O)C(=O)CCOS(C)(=O)=O
T/C [1]: 113 % of control
T/C [2]: 161 % of control
T/C [3]: 203 % of control and 219 % of control
T/C [4]: 213 % of control and 263 % of control
T/C [5]: 102 % of control

CC(C)(C)OC(=O)NC(CCCNC(=O)OCc1ccccc1)C(=O)O (stereo unspecified)
T/C [6]: 110 % of control
T/C [7]: 104 % of control
T/C [8]: 98 % of control

Cc1nn(CCO)c(C)c1N=[N+]([O-])c1c(C)nn(CCO)c1C
T/C (dose: 3.12 mg/kg/injection, schedule: Q01DX009 (ip), vehicle: Klucel (hydroxypropylcellulose) (HPC)): 107 % of control
T/C [9]: 97 % of control
T/C (dose: 6.25 mg/kg/injection, schedule: Q01DX009 (ip), vehicle: Klucel (hydroxypropylcellulose) (HPC)): 109 % of control
T/C [10]: 100 % of control
T/C (dose: 12.5 mg/kg/injection, schedule: Q01DX009 (ip), vehicle: Klucel (hydroxypropylcellulose) (HPC)): 111 % of control
T/C [11]: 92 % of control
T/C (dose: 25.0 mg/kg/injection, schedule: Q01DX009 (ip), vehicle: Klucel (hydroxypropylcellulose) (HPC)): 95 % of control
T/C [12]: 92 % of control
T/C [13]: 91 % of control
T/C [14]: 96 % of control
T/C [6]: 91 % of control

C/C=C1\C[C@@H]2C(OC)Nc3cc(O)c(OC)cc3C(=O)N2C1 (stereo partly specified)
T/C (dose: 0.03 mg/kg/injection, schedule: Q01DX009 (ip), vehicle: suspension in saline): 103 % of control
T/C (dose: 0.06 mg/kg/injection, schedule: Q01DX009 (ip), vehicle: suspension in saline): 109 % of control
T/C (dose: 0.12 mg/kg/injection, schedule: Q01DX009 (ip), vehicle: suspension in saline): 106 % of control

OC1OC2COC(c3ccccc3)OC2C(O)C1O (stereo unspecified)
T/C (dose: 25.0 mg/kg/injection, schedule: Q01DX009 (ip), vehicle: water): 103 % of control
T/C (dose: 50.0 mg/kg/injection, schedule: Q01DX009 (ip), vehicle: water): 96 % of control
T/C (dose: 100.0 mg/kg/injection, schedule: Q01DX009 (ip), vehicle: water): 110 % of control
T/C (dose: 200.0 mg/kg/injection, schedule: Q01DX009 (ip), vehicle: water): 98 % of control
T/C (dose: 400.0 mg/kg/injection, schedule: Q01DX009 (ip), vehicle: water): 94 % of control
T/C (dose: 800.0 mg/kg/injection, schedule: Q01DX009 (ip), vehicle: water): 93 % of control

CN(C)c1ccc2c(NCCCCCCNc3ccnc4cc(N(C)C)ccc34)ccnc2c1
T/C (dose: 1.56 mg/kg/injection, schedule: Q01DX009 (ip), vehicle: distilled water + alcohol): 94 % of control
T/C (dose: 3.12 mg/kg/injection, schedule: Q01DX009 (ip), vehicle: distilled water + alcohol): 92 % of control
T/C (dose: 6.25 mg/kg/injection, schedule: Q01DX009 (ip), vehicle: distilled water + alcohol): 106 % of control
T/C [15]: 116 % of control
T/C [16]: 112 % of control

Oc1cccc2ccccc12
T/C (dose: 25.0 mg/kg/injection, schedule: Q01DX009 (sc), vehicle: other): 97 % of control
T/C (dose: 50.0 mg/kg/injection, schedule: Q01DX009 (sc), vehicle: other): 94 % of control
T/C (dose: 100.0 mg/kg/injection, schedule: Q01DX009 (sc), vehicle: other): 100 % of control
T/C (dose: 200.0 mg/kg/injection, schedule: Q01DX009 (sc), vehicle: other): 92 % of control

CCN1CSC(=S)N(CC)C1
T/C [12]: 94 % of control
T/C [14]: 94 % of control
T/C [17]: 91 % of control

C/C(=N\N=C(/[Se])N1CC2CCC(CC2)C1)c1ccccn1
T/C (dose: 0.75 mg/kg/injection, schedule: Q01DX009 (ip), vehicle: Klucel (hydroxypropylcellulose) (HPC)): 112 % of control and 92 % of control and 108 % of control
T/C (dose: 1.5 mg/kg/injection, schedule: Q01DX009 (ip), vehicle: Klucel (hydroxypropylcellulose) (HPC)): 111 % of control and 99 % of control
T/C (dose: 3.0 mg/kg/injection, schedule: Q01DX009 (ip), vehicle: Klucel (hydroxypropylcellulose) (HPC)): 115 % of control and 100 % of control
T/C (dose: 6.0 mg/kg/injection, schedule: Q01DX009 (ip), vehicle: Klucel (hydroxypropylcellulose) (HPC)): 120 % of control and 93 % of control and 100 % of control

CCCCC(NC(=O)C(C)N)C(=O)O (stereo unspecified)
T/C [13]: 102 % of control
T/C [6]: 107 % of control
T/C [7]: 96 % of control
T/C [8]: 93 % of control

CCC(C)(OC(C)=O)C(=O)OC1C(=O)OC2CC3C(C)=CC(O)C(O)C3(C)C3C4(O)OCC23C1C(C)C4O (stereo unspecified)
T/C (dose: 0.25 mg/kg/injection, schedule: Q01DX009 (ip), vehicle: saline + alcohol): 100 % of control
T/C (dose: 0.5 mg/kg/injection, schedule: Q01DX009 (ip), vehicle: saline + alcohol): 115 % of control
T/C (dose: 1.0 mg/kg/injection, schedule: Q01DX009 (ip), vehicle: saline + alcohol): 112 % of control
T/C (dose: 2.0 mg/kg/injection, schedule: Q01DX009 (ip), vehicle: saline + alcohol): 109 % of control
T/C (dose: 4.0 mg/kg/injection, schedule: Q01DX009 (ip), vehicle: saline + alcohol): 109 % of control

C[C@H](N)C(=O)N[C@@H]1[C@H]2C(=C(O)C[C@@H](O)[C@@H]2O)C(=O)O[C@@H]1C
T/C [3]: 101 % of control
T/C (dose: 75.0 mg/kg/injection, schedule: Q01DX009 (ip), vehicle: saline with Tween-80): 111 % of control
T/C [4]: 98 % of control
T/C (dose: 150.0 mg/kg/injection, schedule: Q01DX009 (ip), vehicle: saline with Tween-80): 120 % of control
T/C [5]: 111 % of control
T/C (dose: 300.0 mg/kg/injection, schedule: Q01DX009 (ip), vehicle: saline with Tween-80): 117 % of control
T/C (dose: 400.0 mg/kg/injection, schedule: Q01DX009 (ip), vehicle: saline): 103 % of control
T/C (dose: 1200.0 mg/kg/injection, schedule: Q01DX009 (ip), vehicle: saline with Tween-80): 113 % of control

CC(C)C(NC(=O)C(CSCc1ccccc1)NC(=O)OCc1ccccc1)C(=O)O (stereo unspecified) (Cbz-Cys(Bn)-Val-OH; configuration not given here)
T/C [6]: 93 % of control
T/C [7]: 98 % of control

CC(Br)C(=O)c1ccc2cc(Br)c3ccccc3c2c1 (stereo unspecified)
T/C [9]: 98 % of control
T/C [10]: 100 % of control
T/C [11]: 90 % of control

Cc1ccc2c(c1)Sc1ccc(N=NN(C)C)cc1N2C
T/C (dose: 6.25 mg/kg/injection, schedule: Q01DX009 (ip), vehicle: other): 100 % of control
T/C (dose: 12.5 mg/kg/injection, schedule: Q01DX009 (ip), vehicle: other): 114 % of control
T/C (dose: 25.0 mg/kg/injection, schedule: Q01DX009 (ip), vehicle: other): 114 % of control
T/C (dose: 50.0 mg/kg/injection, schedule: Q01DX009 (ip), vehicle: other): 115 % of control

CCOc1cc2c(cc1C(C)c1ccc(OC)cc1)OCO2 (stereo unspecified)
T/C [15]: 116 % of control
T/C [16]: 113 % of control
T/C (dose: 50.0 mg/kg/injection, schedule: Q01DX009 (ip), vehicle: distilled water + alcohol): 102 % of control
T/C (dose: 100.0 mg/kg/injection, schedule: Q01DX009 (ip), vehicle: distilled water + alcohol): 98 % of control
T/C (dose: 200.0 mg/kg/injection, schedule: Q01DX009 (ip), vehicle: distilled water + alcohol): 108 % of control

CCCC(=O)O
T/C [1]: 100 % of control
T/C [2]: 96 % of control
T/C [3]: 93 % of control
T/C [4]: 98 % of control
T/C [5]: 93 % of control

c1cn[nH]c1
T/C [1]: 94 % of control
T/C [2]: 118 % of control
T/C [3]: 118 % of control
T/C [4]: 106 % of control

O=C(CCl)Oc1ccc(-c2ccccc2)cc1Br
T/C [14]: 98 % of control
T/C [17]: 90 % of control
T/C (dose: 200.0 mg/kg/injection, schedule: Q01DX009 (ip), vehicle: saline with Tween-80): 87 % of control
